Measurements reported in US20060069132A1, “Azolecarboxamide herbicides” (priority 2004, published 2006).

What was measured:
[1] = tested on: bermudagrass; assay: Test C pre-/postemergence herbicide test; assay type: in vivo, Cynodon dactylon
Method in brief: (§1)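 Pre/post spray; non-phytotoxic solvent + surfactant. Post-timing 1–4 leaves, 2–18 cm. Read-out: visual % control vs untreated, day 12–14, greenhouse.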

[2] = tested on: large crabgrass; assay: Test C pre-/postemergence herbicide test; assay type: in vivo, Digitaria sanguinalis
Method in brief: as §1

[3] = tested on: morningglory; assay: Test A pre-/postemergence herbicide test; assay type: in vivo, Ipomoea spp.
Method in brief: (§2)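 Greenhouse injury scoring (0–100, complete control = 100) at approximately ten days follows simultaneous pre- and postemergence application. Soil received a directed spray after seeding; seedlings of 2–10 cm at the one- to two-leaf stage were sprayed to runoff.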

[4] = tested on: morningglory; assay: Test C pre-/postemergence herbicide test; assay type: in vivo, Ipomoea coccinea; set-up: key to Plant response rating, Morningglory: 0 = no effect, 100 = complete control
Method in brief: as §1

[5] = tested on: common ragweed; assay: Test C pre-/postemergence herbicide test; assay type: in vivo, Ambrosia elatior; set-up: key to Plant response rating, Ragweed: 0 = no effect, 100 = complete control
Method in brief: as §1

[6] = tested on: corn; assay: Test C pre-/postemergence herbicide test; assay type: in vivo, Zea mays
Method in brief: as §1

[7] = tested on: barnyardgrass; assay: Test A pre-/postemergence herbicide test; assay type: in vivo, Echinochloa crus-galli
Method in brief: as §2

[8] = tested on: kochia; assay: Test C pre-/postemergence herbicide test; assay type: in vivo, Kochia scoparia
Method in brief: as §1

[9] = tested on: common (oilseed) sunflower; assay: Test C pre-/postemergence herbicide test; assay type: in vivo, Helianthus annuus
Method in brief: as §1

[10] = tested on: giant foxtail; assay: Test C pre-/postemergence herbicide test; assay type: in vivo, Setaria faberi
Method in brief: as §1

[11] = 31 g ai/ha, preemergence, scale 0 to 100
[12] = 125 g ai/ha, scale 0 (no effect) to 100 (complete control), visual, 12 to 14 days, preemergence
[13] = 250 g ai/ha, scale 0 to 100 (0 no effect, 100 complete control), visual, 12 to 14 days, preemergence
[14] = Postemergence, 500 g ai/ha, 0 to 100 scale, 0 no effect, 100 complete control
[15] = Postemergence, 2000 g ai/ha, 0 to 100 scale, 0 no effect, 100 complete control
[16] = Preemergence, 500 g ai/ha, visual rating, 0 to 100 scale (0 no effect, 100 complete control)
[17] = Preemergence, 2000 g ai/ha, 0 to 100 scale, 0 no effect, 100 complete control
[18] = Preemergence, 500 g ai/ha, scale 0 to 100, 0 no effect, 100 complete control
[19] = 62 g ai/ha, preemergence, scale 0 to 100
[20] = Preemergence, 2000 g ai/ha, visual rating, 0 to 100 scale (0 no effect, 100 complete control)

**Q.** How did the “Plant response rating, Bermudagrass” value [1, 11] turn out when CCCCn1nc(C(C)(C)C)cc1C(=O)Nc1cccc(C(=O)NCC)c1 [Compound 41] was run?
**A.** 30

**Q.** What about the “Plant response rating (0 = no effect, 100 = complete control), Bermudagrass” value ([1]; 62 g ai/ha, preemergence) of the same compound?
**A.** 30

**Q.** What about the “Plant response rating, Bermudagrass” value [1, 12] of the same compound?
**A.** 50

**Q.** And the “Plant response rating, Bermudagrass” value [1, 13]?
**A.** 100

**Q.** What about the “Plant response rating, Crabgrass, Large” value [2, 11] of the same compound?
**A.** 0

**Q.** And the “Plant response rating (0 = no effect, 100 = complete control), Crabgrass, Large” value ([2]; 62 g ai/ha, preemergence)?
**A.** 90

**Q.** What about the “Plant response rating, Crabgrass, Large” value [2, 12] of the same compound?
**A.** 100

**Q.** And the “Plant response rating, Crabgrass, Large” value [2, 13]?
**A.** 100

**Q.** And the “Plant response rating, Morningglory” value [3, 14]?
**A.** 10

**Q.** What about the “Plant response rating, Morningglory” value [3, 15] of the same compound?
**A.** 10

**Q.** And the “Morningglory plant response rating” value [3, 16]?
**A.** 20

**Q.** What about the “Morningglory plant response rating” value [3, 17] of the same compound?
**A.** 45

**Q.** And the “Plant response rating, Morningglory” value [4, 11]?
**A.** 0

**Q.** And the “Plant response rating (0 = no effect, 100 = complete control), Morningglory” value ([4]; 62 g ai/ha, preemergence)?
**A.** 0

**Q.** And the “Plant response rating, Morningglory” value [4, 12]?
**A.** 0

**Q.** And the “Plant response rating, Morningglory” value [4, 13]?
**A.** 20

**Q.** What about the “Plant response rating, Ragweed” value [5, 11] of the same compound?
**A.** 0

**Q.** What about the “Plant response rating (0 = no effect, 100 = complete control), Ragweed” value ([5]; 62 g ai/ha, preemergence) of the same compound?
**A.** 0

**Q.** And the “Plant response rating, Ragweed” value [5, 12]?
**A.** 0

**Q.** What about the “Plant response rating, Ragweed” value [5, 13] of the same compound?
**A.** 10

**Q.** What about the “Plant response rating (0 = no effect, 100 = complete control), Corn” value ([6]; 62 g ai/ha, preemergence) of the same compound?
**A.** 0

**Q.** What about the “Plant response rating, Corn” value [6, 12] of the same compound?
**A.** 0

**Q.** And the “Plant response rating, Corn” value [6, 13]?
**A.** 0

**Q.** And the “Plant response rating, Barnyardgrass” value [7, 14]?
**A.** 30

**Q.** And the “Plant response rating, Barnyardgrass” value [7, 15]?
**A.** 60

**Q.** And the “Barnyardgrass plant response rating” value [7, 16]?
**A.** 40

**Q.** What about the “Barnyardgrass plant response rating” value [7, 17] of the same compound?
**A.** 75

**Q.** What about the “Plant response rating, Kochia” value [8, 11] of the same compound?
**A.** 0

**Q.** And the “Plant response rating (0 = no effect, 100 = complete control), Kochia” value ([8]; 62 g ai/ha, preemergence)?
**A.** 20

**Q.** And the “Plant response rating, Kochia” value [8, 12]?
**A.** 20

**Q.** And the “Plant response rating, Kochia” value [8, 13]?
**A.** 30

**Q.** And the “Plant response rating, Sunflower” value [9, 11]?
**A.** 0

**Q.** And the “Plant response rating (0 = no effect, 100 = complete control), Sunflower” value ([9]; 62 g ai/ha, preemergence)?
**A.** 0

**Q.** What about the “Plant response rating, Sunflower” value [9, 12] of the same compound?
**A.** 0

**Q.** What about the “Plant response rating, Sunflower” value [9, 13] of the same compound?
**A.** 0

**Q.** What about the “Plant response rating, Foxtail, Giant” value [10, 11] of the same compound?
**A.** 0

**Q.** What about the “Plant response rating (0 = no effect, 100 = complete control), Foxtail, Giant” value ([10]; 62 g ai/ha, preemergence) of the same compound?
**A.** 20

**Q.** And the “Plant response rating, Foxtail, Giant” value [10, 12]?
**A.** 20

**Q.** What about the “Plant response rating, Foxtail, Giant” value [10, 13] of the same compound?
**A.** 30

**Q.** For CCNC(=O)c1cc(C)nc(NC(=O)c2cc(C(C)(C)C)nn2CC)c1 [Compound 149], which “Plant response rating, Bermudagrass” value ([1]; 62 g ai/ha, preemergence, scale 0 to 100, 0 no effect, 100 complete control) is on record?
**A.** 30

**Q.** And the “Plant response rating, Bermudagrass” value [1, 12]?
**A.** 90

**Q.** And the “Plant response rating, Bermudagrass” value [1, 13]?
**A.** 90

**Q.** And the “Bermudagrass plant response rating” value [1, 18]?
**A.** 95

**Q.** What about the “Plant response rating, Crabgrass, Large” value [2, 19] of the same compound?
**A.** 20

**Q.** And the “Plant response rating, Crabgrass, Large” value [2, 12]?
**A.** 90

**Q.** And the “Plant response rating, Crabgrass, Large” value [2, 13]?
**A.** 100

**Q.** And the “Crabgrass, Large plant response rating” value [2, 18]?
**A.** 100

**Q.** What about the “Morningglory plant response rating” value [3, 14] of the same compound?
**A.** 30

**Q.** And the “Plant response rating, Morningglory” value [3, 15]?
**A.** 60

**Q.** What about the “Morningglory plant response rating” value [3, 16] of the same compound?
**A.** 30

**Q.** What about the “Morningglory plant response rating” value [3, 20] of the same compound?
**A.** 65

**Q.** And the “Plant response rating, Morningglory” value [4, 19]?
**A.** 0

**Q.** What about the “Plant response rating, Morningglory” value [4, 12] of the same compound?
**A.** 5

**Q.** What about the “Morningglory plant response rating” value [4, 18] of the same compound?
**A.** 60

**Q.** What about the “Plant response rating, Ragweed” value [5, 19] of the same compound?
**A.** 0

**Q.** What about the “Plant response rating, Ragweed” value [5, 12] of the same compound?
**A.** 0

**Q.** And the “Ragweed plant response rating” value [5, 18]?
**A.** 5

**Q.** What about the “Plant response rating, Corn” value [6, 19] of the same compound?
**A.** 0

**Q.** And the “Plant response rating, Corn” value [6, 12]?
**A.** 0

**Q.** And the “Plant response rating, Corn” value [6, 13]?
**A.** 10

**Q.** What about the “Corn plant response rating” value [6, 18] of the same compound?
**A.** 10

**Q.** What about the “Barnyardgrass plant response rating” value [7, 14] of the same compound?
**A.** 45

**Q.** What about the “Plant response rating, Barnyardgrass” value [7, 15] of the same compound?
**A.** 65

**Q.** What about the “Barnyardgrass plant response rating” value [7, 16] of the same compound?
**A.** 70

**Q.** And the “Barnyardgrass plant response rating” value [7, 20]?
**A.** 90

**Q.** What about the “Plant response rating, Kochia” value [8, 19] of the same compound?
**A.** 0

**Q.** What about the “Plant response rating, Kochia” value [8, 12] of the same compound?
**A.** 10

**Q.** What about the “Kochia plant response rating” value [8, 18] of the same compound?
**A.** 90

**Q.** What about the “Plant response rating, Sunflower” value [9, 19] of the same compound?
**A.** 0

**Q.** And the “Plant response rating, Sunflower” value [9, 12]?
**A.** 0

**Q.** What about the “Sunflower plant response rating” value [9, 18] of the same compound?
**A.** 0

**Q.** And the “Plant response rating, Foxtail, Giant” value [10, 19]?
**A.** 0

**Q.** What about the “Plant response rating, Foxtail, Giant” value [10, 12] of the same compound?
**A.** 50

**Q.** What about the “Plant response rating, Foxtail, Giant” value [10, 13] of the same compound?
**A.** 60

**Q.** What about the “Foxtail, Giant plant response rating” value [10, 18] of the same compound?
**A.** 100
